Legend:
[1] = tested on: HSP90 and HSP70; test: Western blotting of AR molecular chaperones; format: cell-based, human; details: LNCaP and 22RV1, 12 hours
Experimental: Cells were lysed and AR, HSP90 and HSP70 protein levels were measured by Western blot analysis.
Lysates were fractionated on polyacrylamide gels and transferred to nitrocellulose. The blots were probed with specific antibodies followed by secondary antibody then membranes were examined using the LI-COR Odyssey infrared imaging system (LI-COR Biotechnology, Lincoln Nebr.). […] The β-actin antibody (1:10000) was purchased from Sigma (St. Louis, Mo.).

[2] = tested on: CYP2C11, CYP3A1/2 and CYP1A2; details: mouse, in vivo
Experimental: FIG. 6A-FIG. 6H. Pharmacokinetic studies of AIL. […] Images show tumors at harvest (30 days after treatment). Scale bar, 1 cm. […] AIL or vehicle control was measured by Western blotting analysis (D) and the livers were photographed and stained with HE (e). Scale bar, the black scale bar is 1 cm (top) and the white scale bar is 50 μm (bottom). […] Scale bar, 1 cm.

[3] = in vivo; set-up: species or system rat; details: for T1/2: rats
Experimental: A simple and sensitive method for the determination of Ailanthonein plasma was developed, using high-performance liquid chromatography-tandem mass spectrometry (HPLC-MS/MS). Brusatol was used as an internal standard. […] The details of this HPLC-MS/MS method and sample preparation are described in our previous study^37.
The statistical analysis was performed by SPSS 22.0 software. The differences between control group and experimental groups were determined by one-way ANOVA. Since treatment and time course was investigated, two-way ANOVA followed by post hoc test was also applied. Data was expressed as mean and standard deviation (s.d.) and P<0.05 was considered significant. Pharmacokinetic parameters were calculated by WinNonlin software version 5.2.1 (Pharsight Corporation, Mountain View, USA) based on noncompartmental analysis.
Sprague-Dawley rats (purchased from Shanghai SLAC laboratory animal Co. Ltd., Shanghai, China) were fasted for 12 h with free access to water prior to the pharmacokinetic study. The rats were randomized into two groups for oral administration (5 mg/kg) and intravenous injection (1 mg/kg). Blood samples were collected from the orbital plexus into heparinized centrifuge tubes at fifteen different time points between 5 min to 36 h for the oral administration group and nine time points between 5 min to 6 h for the intravenous one. The pharmacokinetic parameters were calculated by WinNonlin software version 5.2.1 based on noncompartmental analysis. Oral bioavailability was calculated as F (%)=AUC0-∞(p.o.)/AUC0-∞(i.v.)×Dose (i.v.)/Dose (p.o.).

[4] = tested on: 22RV1; test: SRB cell growth assay, androgen-starved cells with R1881; details: androgen-starved 22RV1, 0.1 nM R1881, 96 hours; 10 μM BIC, 10 μM MDV, 0.1 μM AIL
[5] = tested on: VCaP xenografts; test: Subcutaneous VCaP xenograft model; format: in vivo, mouse; details: 10 mg/kg MDV or 2 mg/kg AIL i.p., 32 days
Experimental: (A-C) 22RV1 (A), LNCaP (B) and Vcap (C) cells were injected with 0.1 ml PBS (22RV1) or Matrigel (LNCaP, Vcap) into the right flank of BALB/c-nude. […] Tumor volume and the mouse body weight were measured once a week. The mice were sacrificed after 28 days (22RV1), 49 days (LNCaP) or 32 days (Vcap) and the tumors from each group of mice were harvested and images were taken. […] Data represent the mean±s.d.
BALB/c-nude mice (6-8 weeks old, male) were purchased from the Sino-British Sippr/BK Lab Animal Co., Ltd (Shanghai, China) and maintained under pathogen-free conditions. The animal use protocol was approved by the Institutional Animal Care and Use Committee of East China Normal University. […] The tumor volume and mouse body weight were measured twice a week. The tumor volume was calculated using the following equation: tumor volume (V)=length×width×width×0.52.
BALB/c-nude mice (6-8 week old, male) were purchased from the Sino-British Sippr/BK Lab Animal Co., Ltd (Shanghai, China) and maintained under pathogen-free conditions. […] The tumor volume and mouse body weight were measured twice a week. The tumor volume was calculated using the following equation: tumor volume (V)=length×width×width×0.52.

[6] = tested on: AR-regulated genes (PSA, TMPRSS2, FKBP5, SLC45A3, NDRG1 mRNA); test: Quantitative real-time PCR of AR-regulated genes; details: 22RV1 cells, 10 nM R1881, 10 μM MDV or 0.2 μM AIL, 12 hours
Experimental: The genes expression was measured byquantitative-PCR.
Total RNA was extracted using TRIzol (Takara, Japan) according to the manufacturer's instructions. 1 μg of total RNA was used for cDNA synthesis using a cDNA reverse transcription kit (Takara, Japan). Real-time PCR was performed in triplicate using gene-specific primers on a Stratagene Mx3005P PCR system (Agilent Technologies) machine. The mRNA expression levels were normalized to β-actin expression or GAPDH.

[7] = tested on: c4-2b; test: SRB cell growth assay, androgen-starved cells with R1881; details: androgen-starved c4-2b, 0.1 nM R1881, 96 hours; 10 μM BIC, 10 μM MDV, 0.1 μM AIL
[8] = tested on: LNCaP-MDV3100-R cells; test: SRB cell growth assay, MDV3100-resistant cells; details: 72 hours, 20 μM BIC, 20 μM MDV, 0.1 μM AIL
Experimental: Cell growth was determined by SRB assay.
The half maximal inhibitory concentration (IC50) was calculated using GraphPad Prism 5.0 (GraphPad, San Diego, Calif.).

[9] = tested on: 22RV1-luc orthotopic xenografts; test: Orthotopic castration resistant prostate cancer model; format: in vivo, mouse; details: castrated mice, 2 mgkg^−1 AIL or 10 mgkg^−1 MDV i.p. once per day, 28 days
Experimental: (A,B) The dorsolateral prostate of male BALB/c-nude mice was injected with 1×10^6 22RV1-luc cells in 30 μl matrigel. […] After 28 days, mice were sacrificed and the local tumors were removed and volumes and weight of the tumors were measured (A).
For orthotopic castration resistant prostate cancer xenografts, male BALB/c-nude mice (8-9 weeks of age) were anesthetized using 150 mgkg^−1 2,2,2-tribromethanol plus 350 mgkg^−1 tert-amyl alcohol and then 5×10^5 22RV1-luc cells suspended in 30 μl 50% Matrigel were surgically injected into the dorsolateral prostate lobes. One week after injection, the tumor-bearing mice were castrated and randomly assigned to three groups. […] Prostate tumor growth and local metastasis were monitored weekly using the IVIS Imaging System (Xenogen Corporation, Alameda, Calif.). Images and measurements of bioluminescent signals were acquired and analyzed using LivingImage and Xenogen software^52.

[10] = tested on: LNCaP cells; test: SRB cell growth assay, androgen-starved cells with R1881; details: 0.1 nM R1881, 96 hours, 10 μM BIC, 10 μM MDV, 0.1-0.4 μM AIL
[11] = Sprague-Dawley, rat, in vivo, iv, 1 mg/kg
[12] = Sprague-Dawley, rat, in vivo, po, 5 mg/kg

For C=CCNC1=C2C[C@@H](C)C[C@H](OC)[C@H](O)[C@@H](C)/C=C(\C)[C@H](OC(N)=O)[C@@H](OC)/C=C\C=C(/C)C(=O)NC(=CC1=O)C2=O [17-AAG], the “HSP90 and HSP70 protein levels” value [1] was “induced up-regulation of HSP90 and HSP70 protein”.

For C=C1[C@@H](O)[C@]2(O)OC[C@]34[C@H]2[C@@]2(C)[C@H](O)C(=O)C=C(C)[C@@H]2C[C@H]3OC(=O)C[C@@H]14 [AIL, 11β,20-Epoxy-1β,11,12α-trihydroxypicrasa-3,13(21)-diene-2,16-dione], the “expression of CYP enzymes in liver” value [2] was “did not influence the expression”, the “Bioavailability (oral)” value ([3]; Sprague-Dawley, rat, in vivo) was 25.7% and the bioavailability ([3]; Sprague-Dawley, rat, in vivo) was greater than 20%. For the same molecule, the AUC0-t [3, 11] was 57874.3 ± 6871.1 ng·min/mL, the “AUC0-∞” value [3, 11] was 61517.4 ± 5986.2 ng·min/mL and the AUC0-t [3, 12] was 67324.5 ± 7405.3 ng·min/mL. For the same molecule, the “AUC0-∞” value [3, 12] was 79053.9 ± 14616.6 ng·min/mL, the “absorption, elimination and distribution after oral administration” value ([3]; rat, in vivo, po) was “absorbed quickly, eliminated rapidly and distributed widely in tissues” and the T1/2 ([3]; i.v. 1 mg kg^−1, mean ± s.d.) was 1.888 ± 0.66 h. The T1/2 ([3]; p.o. 5 mg kg^−1, mean ± s.d.) was 12.17 ± 2.598 h.

In the case of CNC(=O)c1ccc(N2C(=S)N(c3ccc(C#N)c(C(F)(F)F)c3)C(=O)C2(C)C)cc1F [MDV], the “cell growth (SRB)” value [4] is reported as “could not significantly inhibit cell growth”, the “xenograft sensitivity (tumor volume)” value [5] is reported as “still responded” and the “PSA mRNA level in the presence of R1881” value [6] is reported as “decreased”. The “cell growth (SRB)” value [7] was “could not significantly inhibit cell growth”, the “cell growth (SRB)” value [8] was “totally resistant” and the “reduction of tumor volume” value [9] was 15%. The “cell growth (SRB)” value [10] was “effectively blocked cell growth”.
